In brackets after ≈: the same amount, converted by molar mass.
Legend:
Casein kinase 2 = Casein kinase 2 (Rattus norvegicus, UniProt P19139); assay: Inhibition of Rattus norvegicus (rat) liver cytosolic CK2
[1] = test system: Respiratory syncytial virus; assay: Antiviral activity against Respiratory syncytial virus infected cell system assessed as inhibition of viral replication; assay type: functional, organism-based; details: human respiratory syncytial virus
Aorta [2] = assay: Vasorelaxant activity in Rattus norvegicus (rat) aortic rings; assay type: functional, tissue-based
Aorta [3] = assay: Vasorelaxant activity in endothelium-denuded Rattus norvegicus (rat) aortic rings; assay type: functional, tissue-based
Candida = assay: Antimicrobial activity against Candida; assay type: functional
Progesterone receptor = target: T1, Progesterone receptor (Homo sapiens, UniProt P06401); assay: Binding affinity to Homo sapiens (human) progesterone receptor
T1 sequence (P06401 whole entry): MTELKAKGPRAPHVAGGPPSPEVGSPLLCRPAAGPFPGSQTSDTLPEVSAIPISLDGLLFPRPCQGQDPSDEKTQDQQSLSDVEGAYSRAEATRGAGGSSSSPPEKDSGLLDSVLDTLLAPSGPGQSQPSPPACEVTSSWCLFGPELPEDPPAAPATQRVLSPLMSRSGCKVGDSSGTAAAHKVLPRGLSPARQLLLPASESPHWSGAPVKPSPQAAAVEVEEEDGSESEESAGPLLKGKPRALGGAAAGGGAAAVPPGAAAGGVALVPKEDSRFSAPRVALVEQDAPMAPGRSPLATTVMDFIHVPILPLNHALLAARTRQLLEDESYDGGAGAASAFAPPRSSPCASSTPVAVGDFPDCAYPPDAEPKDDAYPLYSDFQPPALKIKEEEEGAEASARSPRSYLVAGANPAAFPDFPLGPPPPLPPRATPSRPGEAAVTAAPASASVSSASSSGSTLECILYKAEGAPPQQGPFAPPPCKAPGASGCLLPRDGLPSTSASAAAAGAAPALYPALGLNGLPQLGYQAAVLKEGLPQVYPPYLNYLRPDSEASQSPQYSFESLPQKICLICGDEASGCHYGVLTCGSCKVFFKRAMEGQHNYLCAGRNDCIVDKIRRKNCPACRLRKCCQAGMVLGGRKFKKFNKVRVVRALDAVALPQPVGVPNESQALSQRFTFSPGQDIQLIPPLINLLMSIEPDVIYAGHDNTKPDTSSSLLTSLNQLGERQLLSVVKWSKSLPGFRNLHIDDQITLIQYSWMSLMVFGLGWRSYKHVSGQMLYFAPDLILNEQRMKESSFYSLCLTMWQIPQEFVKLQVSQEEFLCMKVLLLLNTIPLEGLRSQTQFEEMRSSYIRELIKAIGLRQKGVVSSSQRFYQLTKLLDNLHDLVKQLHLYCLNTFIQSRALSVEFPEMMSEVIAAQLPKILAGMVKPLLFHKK

[4] = test system: Respiratory syncytial virus; assay: Ratio of ribavirin EC50 to compound EC50 for Respiratory syncytial virus infected cell system assessed as inhibition of viral replication; assay type: functional
[5] = Inhibition of GABA-A receptor benzodiazepine site (unknown origin); parameters: species or system Homo sapiens
Trichomonas vaginalis = assay: Antimicrobial activity against Trichomonas vaginalis; assay type: functional, organism-based
Giardia intestinalis = assay: Antimicrobial activity against Giardia intestinalis; assay type: functional, organism-based; details: Giardia duodenalis
PC-3 = assay: Cytotoxicity against Homo sapiens (human) PC3 cells by Alamar blue assay; assay type: functional, cell-based
HT-29 = assay: Cytotoxicity against Homo sapiens (human) HT-29 cells by Alamar blue assay; assay type: functional, cell-based
HL-60 = assay: Cytotoxicity against Homo sapiens (human) HL60 cells by Alamar blue assay; assay type: functional, cell-based
MCF7 = assay: Cytotoxicity against Homo sapiens (human) MCF7 cells by Alamar blue assay; assay type: functional, cell-based
Plasmodium falciparum = assay: Antimicrobial activity against Plasmodium falciparum; assay type: functional, organism-based

Sequence of Casein kinase 2 (P67874 whole entry): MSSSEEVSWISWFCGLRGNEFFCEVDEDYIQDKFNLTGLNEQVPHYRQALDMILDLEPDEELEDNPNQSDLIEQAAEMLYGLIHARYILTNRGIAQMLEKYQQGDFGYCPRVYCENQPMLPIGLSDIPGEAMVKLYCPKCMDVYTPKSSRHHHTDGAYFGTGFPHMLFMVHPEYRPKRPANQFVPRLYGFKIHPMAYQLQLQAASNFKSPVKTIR
Sequence of Casein kinase 2 (P19139 whole entry): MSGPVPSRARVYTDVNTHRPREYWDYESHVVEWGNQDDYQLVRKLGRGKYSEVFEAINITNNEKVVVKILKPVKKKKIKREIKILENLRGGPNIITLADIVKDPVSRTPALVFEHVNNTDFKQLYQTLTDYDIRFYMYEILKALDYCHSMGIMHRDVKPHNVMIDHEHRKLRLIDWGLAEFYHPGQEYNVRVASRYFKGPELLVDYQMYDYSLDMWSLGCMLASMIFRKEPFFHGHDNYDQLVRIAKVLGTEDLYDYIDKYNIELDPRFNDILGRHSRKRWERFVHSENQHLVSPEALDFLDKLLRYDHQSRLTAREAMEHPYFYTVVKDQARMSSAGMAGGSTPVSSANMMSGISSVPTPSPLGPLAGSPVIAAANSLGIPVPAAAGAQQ

FC(F)(F)c1nc2c(Br)c(Br)c(Br)c(Br)c2[nH]1
Ki (Casein kinase 2): 600 nM

NC(=O)c1ncn([C@@H]2O[C@H](CO)[C@@H](O)[C@H]2O)n1 [RIBAVIRIN]
EC50 [1]: 15000 nM

COc1ccc(-c2nc3cc([N+](=O)[O-])ccc3[nH]2)cc1
IC50 (Aorta [2]): 1410 nM
IC50 (Aorta [3]): 3610 nM

CCCCn1c(-c2ccc(F)cc2)nc2cc(C#N)ccc21
MIC (Candida): 3130 ng/mL (≈ 10.7 µM)

Sc1nc2ccc(-n3ccnc3)cc2n1C1CCCC1
Ki (Progesterone receptor): 28 nM

Cc1ccc(O)c(Cn2c(NC3CCN(CCN)CC3)nc3c(C)cccc32)n1 [JNJ 2408068]
Ratio EC50 [4]: 100000
EC50 [1]: 0.16 nM

CCOCN1C2=C(C(=O)Nc3ccccc3F)C(=O)CCN2c2ccc(F)cc21
IC50 [5]: 0.1 nM

O=[N+]([O-])c1ccc2nc(-c3ccccc3O)[nH]c2c1
IC50 (Aorta [2]): 950 nM
IC50 (Aorta [3]): 2010 nM

Sc1nc2c(Br)cc(Br)cc2[nH]1
IC50 (Trichomonas vaginalis): 1.5 ng/mL (≈ 0.00487 µM)
IC50 (Giardia intestinalis): 6 ng/mL (≈ 0.0195 µM)

O=C(O)c1cccc2[nH]c(-c3cccc4oc(-c5ccccc5O)nc34)nc12
IC50 (PC-3): 7000 nM
IC50 (HT-29): 7000 nM
IC50 (HL-60): 7000 nM
IC50 (MCF7): 7000 nM

N=C(N)c1ccc(-c2ccc(O)c(-c3nc4ccc(C(=N)N)cc4[nH]3)c2)cc1
IC50 (Plasmodium falciparum): 2.1 nM
